Results published in patent publication US20100279957A1, “PREDICTING RESPONSIVENESS TO CANCER THERAPEUTICS” (priority 2007, published 2010).
Read-outs that look alike come from different tables or passages of the source.

Assays:
NCI-60 cell line panel = system: NCI-60 cell line panel; set-up: key: Sensitive; Resistant; conditions: cited from earlier work
[1] = system: breast cancer, advanced ovarian cancer; conditions: responders/patients, cited from earlier work
[2] = system: breast cancer, advanced ovarian cancer; assay: Clinical response to single agent chemotherapy in patients (breast neoadjuvant docetaxel; ovarian salvage docetaxel, topotecan, taxol; adriamycin treated patients); format: in vivo, human; conditions: Ovarian tumor data set; responders/patients
From the text: The development of a gene expression signature capable of predicting in vitro docetaxel sensitivity provides a tool that might be useful in predicting response to the drug in patients. We made use of published studies with clinical and genomic data that linked gene expression data with clinical response to docetaxel in a breast cancer neoadjuvant study^50 (FIG. 1D) to test the capacity of the in vitro docetaxel sensitivity predictor to accurately identify those patients that responded to docetaxel. […] We extended this further by predicting the response to docetaxel as salvage therapy for ovarian cancer.
Given the ability of the in vitro developed gene expression profiles to predict response to docetaxel in the clinical samples, we extended this approach to test the ability of additional signatures to predict response to commonly used salvage therapies for ovarian cancer and an independent data set of samples from adriamycin treated patients (Evans W, GSE650, GSE651). […] In each case, the positive and negative predictive values confirm the validity and clinical utility of the approach (Table 16).
Full details of the methods used for RNA extraction and development of gene expression signatures representing deregulation of oncogenic pathways in the tumor samples were recently described.^36 Response to therapy was evaluated using standard criteria for patients with measurable disease, based upon WHO guidelines.^28

Question: With `O=c1[nH]cc(F)c(=O)[nH]1` [5-FU, 5-fluorouracil] as the compound, how does the “Resistant or Sensitive (Res or Sen)” value (NCI-60 cell line panel; A498, Renal) read?
Answer: Its value is “Sen”.

Question: And the “Resistant or Sensitive (Res or Sen)” value (NCI-60 cell line panel; COLO 205, Colon)?
Answer: The value was “Sen”.

Question: What about the “Resistant or Sensitive (Res or Sen)” value (NCI-60 cell line panel; EKVX, Non-Small Cell Lung) of the same compound?
Answer: The value was “Res”.

Question: What about the “Resistant or Sensitive (Res or Sen)” value (NCI-60 cell line panel; HCT-116, Colon) of the same compound?
Answer: Its value is “Sen”.

Question: And the “Resistant or Sensitive (Res or Sen)” value (NCI-60 cell line panel; LOX IMVI, Melanoma)?
Answer: The value was “Sen”.

Question: And the “Resistant or Sensitive (Res or Sen)” value (NCI-60 cell line panel; M14, Melanoma)?
Answer: The value was “Res”.

Question: What about the “Resistant or Sensitive (Res or Sen)” value (NCI-60 cell line panel; MCF7, Breast) of the same compound?
Answer: The value was “Sen”.

Question: What about the “Resistant or Sensitive (Res or Sen)” value (NCI-60 cell line panel; MDA-MB-435, Melanoma) of the same compound?
Answer: The value was “Res”.

Question: And the “Resistant or Sensitive (Res or Sen)” value (NCI-60 cell line panel; NCI-H460, Non-Small Cell Lung)?
Answer: The value was “Sen”.

Question: And the “Resistant or Sensitive (Res or Sen)” value (NCI-60 cell line panel; NCI/ADR-RES, Ovarian)?
Answer: The value was “Res”.

Question: What about the “Resistant or Sensitive (Res or Sen)” value (NCI-60 cell line panel; OVCAR-8, Ovarian) of the same compound?
Answer: Its value is “Res”.

Question: And the “Resistant or Sensitive (Res or Sen)” value (NCI-60 cell line panel; SK-MEL-5, Melanoma)?
Answer: The value was “Sen”.

Question: And the “Resistant or Sensitive (Res or Sen)” value (NCI-60 cell line panel; SN12C, Renal)?
Answer: Its value is “Res”.

Question: And the “Resistant or Sensitive (Res or Sen)” value (NCI-60 cell line panel; SW-620, Colon)?
Answer: Its value is “Res”.

Question: And the “Resistant or Sensitive (Res or Sen)” value (NCI-60 cell line panel; UO-31, Renal)?
Answer: Its value is “Sen”.

Question: Which “Actual Overall Response” value ([1]; Evans et al. patient data set) does the source give for `COc1cccc2c1C(=O)c1c(O)c3c(c(O)c1C2=O)C[C@@](O)(C(=O)CO)C[C@@H]3O[C@H]1C[C@H](N)[C@H](O)[C@H](C)O1` [adriamycin] here?
Answer: Its value is 24/122 (19.6%).

Question: With `CC(=O)O[C@@]12CO[C@@H]1C[C@H](O)[C@@]1(C)C(=O)[C@H](O)C3=C(C)[C@@H](OC(=O)[C@H](O)[C@@H](NC(=O)OC(C)(C)C)c4ccccc4)C[C@@](O)([C@@H](OC(=O)c4ccccc4)[C@H]21)C3(C)C` [docetaxel] as the compound, how does the “Actual Overall Response” value ([1]; Breast Tumor Data, neoadjuvant (Chang et al.)) read?
Answer: The value was 13/24 (54.1%).

Question: What about the “Actual Overall Response” value [2] of the same compound?
Answer: Its value is 7/14 (50%).

Question: Which “Actual Overall Response” value [2] does the source give for `CC(=O)O[C@H]1C(=O)[C@@]2(C)[C@H]([C@H](OC(=O)c3ccccc3)[C@]3(O)C[C@H](OC(=O)[C@H](O)[C@@H](NC(=O)c4ccccc4)c4ccccc4)C(C)=C1C3(C)C)[C@]1(OC(C)=O)CO[C@@H]1C[C@@H]2O` [taxol, paclitaxel] here?
Answer: The value was 20/35 (57.1%).

Question: For `CC[C@@]1(O)C(=O)OCc2c1cc1n(c2=O)Cc2cc3c(CN(C)C)c(O)ccc3nc2-1` [topotecan], which “Actual Overall Response” value [2] is on record?
Answer: The value was 20/48 (41.6%).
